# Assay results taken from patent US20040067889A1, “Stabilization of brain natriuretic peptide (BNP) in blood samples, methods and compositions related thereto” (priority 2002, published 2004).
# Like-named read-outs stand apart in the source and are kept apart here.
# What was measured:
# Assay type in all cases: biochemical
# endogenous proteases [1] = test: Stability of synthetic BNP-32 spiked into normal human plasma with protease inhibitors (chemiluminescent BNP immunoassay); settings: for efficacy in stabilizing BNP (in words): Table 11, inhibitors at usual functional concentrations
# endogenous proteases [2] = test: Stability of spiked synthetic BNP in bovine fetal serum with inhibitors; settings: BFS; for Recovery versus 1st run: 48 hours at 4° C.
# Description: (§1) To generate an analytical signal to quantify the BNP concentration in the sample, two monoclonal BNP-specific antibodies (Shionogi & Co., LTD, Osaka, Japan; EP542255A1/B1; JP 3297392) were used. The first antibody was labeled with acridinium ester (AE) and the second antibody was labeled with biotin. The two antibodies bind to BNP molecules present in the plasma samples to form a complex; the formed complex was captured by paramagnetic particles (PMP) coated with streptavidin. PMP was separated by magnetic field and washed to remove non-specifically bound material. BNP-AE complexes retained on the PMP were treated with alkaline solution to produce a chemiluminescent signal, which was proportional to the amount of BNP captured; the signal was measured in relative light units or “RLU”. The assay was carried out on an automated chemiluminescent system ADIVA:Centaur™ (Bayer Corporation, Tarrytown, N.Y.) using BNP detection reagents, such as have been described. (e.g., B. Bluestein et al., 2002, “Development of an automated test for BNP as an aid in the diagnosis and evaluation of CHF on the Bayer ADVIA Centaur ACS”, Clinical Chemistry, 48(S6):A85, Abstract C37).
# (§2) Experiments were performed to assess BNP stabilization in animal serum and human serum versus human plasma. Tables 9 and 10 below illustrate the efficacy of PPACK and leupeptin as BNP stabilizers in three different media, namely, bovine fetal serum (Biocell Labs, Rancho Dominguez, Calif.), normal human serum (Biocell Labs), and normal human plasma (Intergen).
# endogenous proteases [3] = test: Stability of spiked synthetic BNP in normal human serum with inhibitors; settings: HS; for Recovery versus 1st run: 48 hours at 4° C.
# Description: as §1, §2
# [4] = IHPP + 10 ng/ml BNP, 4° C., AEBSF 200 μg/ml, antipain 100 μg/ml, benzamidine 14 mM, PPACK 50 μg/ml, or all four
# [5] = HP, spiked synthetic BNP, leupeptin 0.5 μg/ml
# [6] = HP, spiked synthetic BNP, leupeptin 5 μg/ml
# [7] = HP, spiked synthetic BNP, leupeptin 50 μg/ml
# [8] = IHP (EDTA) with synthetic BNP-32 added, each inhibitor 50 μg/ml
# [9] = Plasma A, spiked synthetic BNP, inhibitor 0.62 μg/ml
# [10] = Plasma A, spiked synthetic BNP, inhibitor 1.85 μg/ml
# [11] = Plasma A, spiked synthetic BNP, inhibitor 5.56 μg/ml
# [12] = Plasma A, spiked synthetic BNP, inhibitor 16.7 μg/ml
# [13] = Plasma A, spiked synthetic BNP, inhibitor 50 μg/ml
compound,measurement,setting,value
N=C(N)c1ccccc1 [benzamidine],% Recovery vs 1st run (Time 0),endogenous proteases [1],82.6%
same,"BNP, 1st run (Time 0)",endogenous proteases [1],830.6 pg/mL
same,"BNP, 3 hours at 4° C.",endogenous proteases [1],806.8 pg/mL
same,"BNP, 17 hours at 4° C.",endogenous proteases [1],860.5 pg/mL
same,"BNP, 40 hours at 4° C.",endogenous proteases [1],813.8 pg/mL
same,"BNP, 6 days at 4° C.",endogenous proteases [1],686.3 pg/mL
same,1 week (RLU),endogenous proteases [1]; [4],2568730 RLU
same,2 weeks (RLU),endogenous proteases [1]; [4],238972 RLU
same,4 weeks % Signal Recovered,endogenous proteases [1]; [4],0.8%
same,4 weeks (RLU),endogenous proteases [1]; [4],30024 RLU
same,72 hrs (RLU),endogenous proteases [1]; [4],3342787 RLU
same,22 days (RLU),endogenous proteases [1]; [4],108308 RLU
same,Day 0 (RLU),endogenous proteases [1]; [4],3927159 RLU
same,efficacy in stabilizing BNP (in words),endogenous proteases [1],intermediate efficacy
"CC(=O)N[C@@H](CC(C)C)C(=O)N[C@@H](CC(C)C)C(=O)N[C@H](C=O)CCCNC(=N)N [leupeptin, acetyl-leu-leu-arginal]",% Recovery vs 1st run (Time 0),endogenous proteases [1],105.5%
same,"BNP, 1st run (Time 0)",endogenous proteases [1],792.0 pg/mL
same,"BNP, 3 hours at 4° C.",endogenous proteases [1],896.9 pg/mL
same,"BNP, 17 hours at 4° C.",endogenous proteases [1],864.4 pg/mL
same,"BNP, 40 hours at 4° C.",endogenous proteases [1],873.7 pg/mL
same,"BNP, 6 days at 4° C.",endogenous proteases [1],835.9 pg/mL
same,"BNP, 3 hours at 4° C. before freezing",endogenous proteases [1]; [5],751.3 pg/mL
same,"BNP, 24 hours at 4° C. before freezing",endogenous proteases [1]; [5],696.1 pg/mL
same,"BNP, 48 hours at 4° C. before freezing",endogenous proteases [1]; [5],672.6 pg/mL
same,"BNP, frozen w/o storage at 4° C.",endogenous proteases [1]; [5],765.2 pg/mL
same,Recovery versus 1st run,"endogenous proteases [1]; HP, spiked synthetic BNP, leupeptin 0.5 μg/ml, 48 hours at 4° C.",87.9%
same,"BNP, 3 hours at 4° C. before freezing",endogenous proteases [1]; [6],828.3 pg/mL
same,"BNP, 24 hours at 4° C. before freezing",endogenous proteases [1]; [6],807.5 pg/mL
same,"BNP, 48 hours at 4° C. before freezing",endogenous proteases [1]; [6],784.4 pg/mL
same,"BNP, frozen w/o storage at 4° C.",endogenous proteases [1]; [6],679.0 pg/mL
same,Recovery versus 1st run,"endogenous proteases [1]; HP, spiked synthetic BNP, leupeptin 5 μg/ml, 48 hours at 4° C.",115.5%
same,"BNP, 3 hours at 4° C. before freezing",endogenous proteases [1]; [7],795.6 pg/mL
same,"BNP, 24 hours at 4° C. before freezing",endogenous proteases [1]; [7],763.0 pg/mL
same,"BNP, 48 hours at 4° C. before freezing",endogenous proteases [1]; [7],798.3 pg/mL
same,"BNP, frozen w/o storage at 4° C.",endogenous proteases [1]; [7],867.2 pg/mL
same,Recovery versus 1st run,"endogenous proteases [1]; HP, spiked synthetic BNP, leupeptin 50 μg/ml, 48 hours at 4° C.",92.1%
same,Amount of BNP Present After 24 hr/4° C.,endogenous proteases [1]; [8],2503.78
same,Amount of BNP Present After 90 hr/4° C.,endogenous proteases [1]; [8],2133.75
same,"Amount of BNP Present Before Storage, Day 0",endogenous proteases [1]; [8],2290.08
same,BNP Amount % Change,"endogenous proteases [1]; IHP with synthetic BNP-32 added, each inhibitor 50 μg/ml, 90 hr/4° C. vs Day 0",−6.8%
same,"BNP, 1st run (Time 0)",endogenous proteases [1]; [9],847.4 pg/mL
same,"BNP, 3 hours at 4° C.",endogenous proteases [1]; [9],863.3 pg/mL
same,"BNP, 17 hours at 4° C.",endogenous proteases [1]; [9],776.1 pg/mL
same,"BNP, 40 hours at 4° C.",endogenous proteases [1]; [9],721.6 pg/mL
same,"BNP, 6 days at 4° C.",endogenous proteases [1]; [9],373.6 pg/mL
same,Recovery versus 1st run,"endogenous proteases [1]; Plasma A, spiked synthetic BNP, inhibitor 0.62 μg/ml, 6 days at 4° C.",44.1%
same,"BNP, 1st run (Time 0)",endogenous proteases [1]; [10],841.7 pg/mL
same,"BNP, 3 hours at 4° C.",endogenous proteases [1]; [10],873.5 pg/mL
same,"BNP, 17 hours at 4° C.",endogenous proteases [1]; [10],859.4 pg/mL
same,"BNP, 40 hours at 4° C.",endogenous proteases [1]; [10],795.5 pg/mL
same,"BNP, 6 days at 4° C.",endogenous proteases [1]; [10],604.7 pg/mL
same,Recovery versus 1st run,"endogenous proteases [1]; Plasma A, spiked synthetic BNP, inhibitor 1.85 μg/ml, 6 days at 4° C.",71.8%
same,"BNP, 1st run (Time 0)",endogenous proteases [1]; [11],879.3 pg/mL
same,"BNP, 3 hours at 4° C.",endogenous proteases [1]; [11],900.4 pg/mL
same,"BNP, 17 hours at 4° C.",endogenous proteases [1]; [11],847.2 pg/mL
same,"BNP, 40 hours at 4° C.",endogenous proteases [1]; [11],808.0 pg/mL
same,"BNP, 6 days at 4° C.",endogenous proteases [1]; [11],722.8 pg/mL
same,Recovery versus 1st run,"endogenous proteases [1]; Plasma A, spiked synthetic BNP, inhibitor 5.56 μg/ml, 6 days at 4° C.",82.2%
same,"BNP, 1st run (Time 0)",endogenous proteases [1]; [12],886.7 pg/mL
same,"BNP, 3 hours at 4° C.",endogenous proteases [1]; [12],849.8 pg/mL
same,"BNP, 17 hours at 4° C.",endogenous proteases [1]; [12],904.5 pg/mL
same,"BNP, 40 hours at 4° C.",endogenous proteases [1]; [12],903.1 pg/mL
same,"BNP, 6 days at 4° C.",endogenous proteases [1]; [12],808.2 pg/mL
same,Recovery versus 1st run,"endogenous proteases [1]; Plasma A, spiked synthetic BNP, inhibitor 16.7 μg/ml, 6 days at 4° C.",91.1%
same,"BNP, 1st run (Time 0)",endogenous proteases [1]; [13],792.0 pg/mL
same,"BNP, 3 hours at 4° C.",endogenous proteases [1]; [13],896.9 pg/mL
same,"BNP, 17 hours at 4° C.",endogenous proteases [1]; [13],864.4 pg/mL
same,"BNP, 40 hours at 4° C.",endogenous proteases [1]; [13],873.7 pg/mL
same,"BNP, 6 days at 4° C.",endogenous proteases [1]; [13],835.9 pg/mL
same,Recovery versus 1st run,"endogenous proteases [1]; Plasma A, spiked synthetic BNP, inhibitor 50 μg/ml, 6 days at 4° C.",105.5%
same,"BNP, 3 hours at 4° C. before freezing",endogenous proteases [2]; leupeptin 0.5 μg/ml,639.6 pg/mL
same,"BNP, 24 hours at 4° C. before freezing",endogenous proteases [2]; leupeptin 0.5 μg/ml,537.2 pg/mL
same,"BNP, 48 hours at 4° C. before freezing",endogenous proteases [2]; leupeptin 0.5 μg/ml,424.9 pg/mL
same,"BNP, frozen w/o storage at 4° C.",endogenous proteases [2]; leupeptin 0.5 μg/ml,712.9 pg/mL
same,Recovery versus 1st run,endogenous proteases [2]; leupeptin 0.5 μg/ml,59.6%
same,"BNP, 3 hours at 4° C. before freezing",endogenous proteases [2]; leupeptin 5 μg/ml,672.2 pg/mL
same,"BNP, 24 hours at 4° C. before freezing",endogenous proteases [2]; leupeptin 5 μg/ml,601.7 pg/mL
same,"BNP, 48 hours at 4° C. before freezing",endogenous proteases [2]; leupeptin 5 μg/ml,498.9 pg/mL
same,"BNP, frozen w/o storage at 4° C.",endogenous proteases [2]; leupeptin 5 μg/ml,845.0 pg/mL
same,Recovery versus 1st run,endogenous proteases [2]; leupeptin 5 μg/ml,59.0%
same,"BNP, 3 hours at 4° C. before freezing",endogenous proteases [2]; leupeptin 50 μg/ml,751.1 pg/mL
same,"BNP, 24 hours at 4° C. before freezing",endogenous proteases [2]; leupeptin 50 μg/ml,707.0 pg/mL
same,"BNP, 48 hours at 4° C. before freezing",endogenous proteases [2]; leupeptin 50 μg/ml,614.5 pg/mL
same,"BNP, frozen w/o storage at 4° C.",endogenous proteases [2]; leupeptin 50 μg/ml,810.5 pg/mL
same,Recovery versus 1st run,endogenous proteases [2]; leupeptin 50 μg/ml,75.8%
same,"BNP, 3 hours at 4° C. before freezing",endogenous proteases [3]; leupeptin 0.5 μg/ml,129.0 pg/mL
same,"BNP, 24 hours at 4° C. before freezing",endogenous proteases [3]; leupeptin 0.5 μg/ml,45.1 pg/mL
same,"BNP, 48 hours at 4° C. before freezing",endogenous proteases [3]; leupeptin 0.5 μg/ml,11.4 pg/mL
same,"BNP, frozen w/o storage at 4° C.",endogenous proteases [3]; leupeptin 0.5 μg/ml,227.7 pg/mL
same,Recovery versus 1st run,endogenous proteases [3]; leupeptin 0.5 μg/ml,5.0%
same,"BNP, 3 hours at 4° C. before freezing",endogenous proteases [3]; leupeptin 5 μg/ml,203.0 pg/mL
same,"BNP, 24 hours at 4° C. before freezing",endogenous proteases [3]; leupeptin 5 μg/ml,135.6 pg/mL
same,"BNP, 48 hours at 4° C. before freezing",endogenous proteases [3]; leupeptin 5 μg/ml,74.3 pg/mL
same,"BNP, frozen w/o storage at 4° C.",endogenous proteases [3]; leupeptin 5 μg/ml,311.1 pg/mL
same,Recovery versus 1st run,endogenous proteases [3]; leupeptin 5 μg/ml,23.9%
same,"BNP, 3 hours at 4° C. before freezing",endogenous proteases [3]; leupeptin 50 μg/ml,274.2 pg/mL
same,"BNP, 24 hours at 4° C. before freezing",endogenous proteases [3]; leupeptin 50 μg/ml,217.5 pg/mL
same,"BNP, 48 hours at 4° C. before freezing",endogenous proteases [3]; leupeptin 50 μg/ml,156.6 pg/mL
same,"BNP, frozen w/o storage at 4° C.",endogenous proteases [3]; leupeptin 50 μg/ml,297.9 pg/mL
same,Recovery versus 1st run,endogenous proteases [3]; leupeptin 50 μg/ml,52.6%
Aprotinin,% Recovery vs 1st run (Time 0),endogenous proteases [1],21.1%
same,"BNP, 1st run (Time 0)",endogenous proteases [1],792.4 pg/mL
same,"BNP, 3 hours at 4° C.",endogenous proteases [1],849.7 pg/mL
same,"BNP, 17 hours at 4° C.",endogenous proteases [1],680.0 pg/mL
same,"BNP, 40 hours at 4° C.",endogenous proteases [1],490.9 pg/mL
same,"BNP, 6 days at 4° C.",endogenous proteases [1],167.4 pg/mL
same,efficacy in stabilizing BNP (in words),endogenous proteases [1],low efficacy
